This experiment relates to rat MAPCs. Description: In vitro hepatic differentiation of rat MAPCs, read out by qRT-PCR. It counts as cell-based. The method, then: Undifferentiated MAPCs were expanded at large scale until several million cells were obtained. Cells then were plated at 50,000-60,000 cells/cm^2 in Matrigel (2%) coated wells. Initially, cells were cultured in expansion medium until they reached 80-90% confluency 16 hours later. Then, cells were washed twice with PBS and the medium was switched to differentiation medium. Basal differentiation medium consisted of DMEM (60%), MCDB (40%), ascorbic acid (IX), penicillin/streptomycin (1×), beta-mercaptoethanol, ITS (0.25×), LA-BSA (0.25×) and dexamethasone (10^-6M). Understanding the molecular signals favoring liver development is essential for the development of a logical in vitro differentiation protocol to modulate stem cell differentiation towards the hepatic fate. With this in mind, different cytokines at variable concentrations and chronological orders were investigated for their hepatocyte inducing capacity in […]. Cytokines tested included Nodal, its co-receptor Cripto, ActivinA, Wnt3a, BMP4, bFGF, aFGF, FGF8b, EGF, Nicotinamide, heparan sulphate proteoglycan, Oncostatin M, HGF and Follistatin. All cytokines were purchased from R&D, Minneapolis, USA. Apart from the cytokines, medium components also play an important role in guiding cells towards a specific fate. […]
For orientation: Quantitative PCR measures a nucleic acid by following its amplification.

In the case of “insulin: medium component (ITS); a lower amount was used to avoid adipogenesis”, the “expression of mature markers (albumin, TAT)” value (high concentration of dexamethasone together with low concentration of insulin in differentiation medium) is “enhanced expression of some mature markers”.

B1: Wnt3a: recombinant cytokine, hepatic differentiation factor, 50 ng/ml in step 1 (protein, UniProt P56704 19-352, looked up)
Protein Wnt-3a: SYPIWWSLAVGPQYSSLGSQPILCASIPGLVPKQLRFCRNYVEIMPSVAEGIKIGIQECQHQFRGRRWNCTTVHDSLAIFGPVLDKATRESAFVHAIASAGVAFAVTRSCAEGTAAICGCSSRHQGSPGKGWKWGGCSEDIEFGGMVSREFADARENRPDARSAMNRHNNEAGRQAIASHMHLKCKCHGLSGSCEVKTCWWSQPDFRAIGDFLKDKYDSASEMVVEKHRESRGWVETLRPRYTYFKVPTERDLVYYEASPNFCEPNPETGSFGTRDRTCNVSSHGIDGCDLLCCGRGHNARAERRREKCRCVFHWCCYVSCQECTRVYDVHTCK
Take B1: for the setting “serum-free conditions, in the complete absence of serum cell death occurred”, the induction of differentiation entry is given as “differentiation was induced”.

The values above are taken from patent publication US10457914B2, “Optimized methods for differentiation of cells into cells with hepatocyte and hepatocyte progenitor phenotypes, cells produced by the methods, and methods for using the cells” (priority 2008, dated 2019).
